Source: patent US11590110B2, “Compositions and methods for reactivating latent immunodeficiency virus using a GSK-3 inhibitor” (priority 2017, dated 2023)

Tests used:
NF-κB (p65) = assay: Example 5: NF-κB p65 nuclear translocation, western blot of nuclear extracts; format: cell-based, human; details: 1 μM tideglusib or anti-CD3/CD28 coated beads; CD4+ T cells of three HIV-negative participants
Method: Nuclear extracts were prepared from purified CD4^+ T cells using the NE-PER Nuclear and Cytoplasmic Extraction reagent supplemented with protease inhibitor cocktail, as specified by the manufacturers protocol (Thermoscientific, catalogue no. 78833). Protein concentration of extracts was determined by Biorad protein assay (Biorad, catalogue no. 5000001). Nuclear extracts were resolved by electrophoresis on a 10% SDS-polyacrylamide gel using 15 μg of protein per condition and then transferred to PVDF membrane. Membranes were immunoblotted with primary antibodies for p65 (Cell signal Tech., catalogue no. 8242) and TATA binding protein (Abcam, catalogue no. ab63766); primary antibodies were diluted at 1:1000. Detection of primary antibodies was achieved by incubation with HRP conjugated secondary antibody. Bands were visualized by chemiluminescent detection using Immobilon Forte Western HRP ECL substrate (Millipore, catalogue no. WBLUF0100) followed by exposure to hyperfilm ECL (GE/Amersham, catalogue no. 45001508).

[1] = tested on: AKT/mTOR pathway in CD4+ T cells; assay: Example 5: phosphoproteomics (mass spectrometry) and GO enrichment analysis; format: cell-based, human; details: 1 μM; 15 minutes
Method: Cells were lysed in a buffer containing 8M urea, 100 mM Tris pH 8.0, 150 mM NaCl, and protease inhibitors (Roche Complete tablet). Lysates were reduced with 4 mM TCEP for 30 minutes at room temperature and alkylated with 10 mM iodoacetamide for 30 minutes at room temperature in the dark. Samples were diluted 1:4 in 100 mM Tris pH 8.0 to reduce urea concentration to 2M and digested with trypsin (1:100 enzyme:substrate ratio) overnight at 37 degrees Celsius. Peptides were desalted with SepPak C 18 solid phase extraction (Waters) according the manufacturer's specifications and lyophilized to dryness. Phosphopeptides were purified using an immobilized metal affinity chromatography approach.
Samples were analyzed on a Thermo Scientific LTQ Orbitrap Elite MS system equipped with an Easy nLC-1000 HPLC and autosampler system that is capable of maintaining back pressures of up to 10,000 psi for high resolution chromatographic separations. The HPLC interfaces with the MS system via a nanoelectrospray source.
Samples were injected onto a C18 reverse phase capillary column (75 um inner diameter×25 cm length, packed with 1.9 um C18 particles). Peptides were then separated by an organic gradient from 5% to 30% ACN in 0.1% formic acid over 180 minutes at a flow rate of 300 nl/min. The MS continuously collected spectra in a data-dependent fashion over the entire gradient.
Raw mass spectrometry data were analyzed using the MaxQuant software package (version 1.3.0.5). Data were matched to the SwissProt human reference sequence database. MaxQuant was configured to generate and search against a reverse sequence database for false discovery rate calculations. […] For MS/MS matching, a mass tolerance of 0.5 Da was allowed and the top 6 peaks per 100 Da were analyzed. […]
The MaxQuant-analyzed data were subsequently analyzed using an in-house computational pipeline for statistical analysis of relative quantification with fixed and/or mixed effect models, implemented in the MSstats Bioconductor package (version 3.3.10). […]

Question: With O=c1sn(-c2cccc3ccccc23)c(=O)n1Cc1ccccc1 [Tideglusib, 4-benzyl-2-(naphthalen-1-yl)-1,2,4-thiadiazolidine-3,5-dione] as the molecule, how does the “time of peak p65 nuclear translocation” value (NF-κB (p65)) read?
Answer: 60 min

Question: And the “GO enrichment analysis of treated vs untreated phosphoproteomics results” value [1]?
Answer: activation of TCR signaling (data not shown), together with overall spliceosome complex activity, transcription activation, mRNA processing and EGFR signaling

Question: And the “phosphoproteomics: GSK-3β and TSC2” value [1]?
Answer: confirmed inhibition of GSK-3β and TSC2

Question: What about the “phosphoproteomics: Rictor” value [1] of the same molecule?
Answer: revealed phosphorylation of Rictor on T1295
